For 13 compounds, IC50 and Ki results are on record in ChEMBL document CHEMBL1909046, “DrugMatrix in vitro pharmacology data”.

Assay [1] has as its target Beta-1 adrenergic receptor (Homo sapiens, UniProt P08588). Put plainly: DRUGMATRIX: Adrenergic beta1 radioligand binding (ligand: [125I] Cyanopindolol). In kind it is cell membranes, CHO-K1, Membrane. Particulars: Not Active = under 50% inhibition at 10 µM.
Assay [2] concerns the target C-C chemokine receptor type 2 (Homo sapiens, UniProt P41597). In kind it is cell membranes, CHO-K1, Membrane. Conditions: cho-k1. Further: in other assays of this panel Not Active means under 50% inhibition at 10 µM.
For assay [3], the target named is C-C chemokine receptor type 5 (Homo sapiens, UniProt P51681). Format: cell membranes, HEK293, Membrane. Conditions: hek293. Further: in other assays of this panel Not Active means under 50% inhibition at 10 µM.
Assay [4] can be described thus: DRUGMATRIX: GABAA, Flunitrazepam, Central radioligand binding (ligand: [3H] Flunitrazepam). In kind it is cell membranes, Rattus norvegicus, Wistar, Brain, Membrane. Particulars: Not Active = under 50% inhibition at 10 µM.
A short description of assay [5]: DRUGMATRIX: Leukotriene, BLT (LTB4) radioligand binding (ligand: [3H]LTB4). Format: cell membranes, Membrane. Conditions: u-937; Not Active = under 50% inhibition at 10 µM.

Sequence of C-C chemokine receptor type 5 (P51681 whole entry): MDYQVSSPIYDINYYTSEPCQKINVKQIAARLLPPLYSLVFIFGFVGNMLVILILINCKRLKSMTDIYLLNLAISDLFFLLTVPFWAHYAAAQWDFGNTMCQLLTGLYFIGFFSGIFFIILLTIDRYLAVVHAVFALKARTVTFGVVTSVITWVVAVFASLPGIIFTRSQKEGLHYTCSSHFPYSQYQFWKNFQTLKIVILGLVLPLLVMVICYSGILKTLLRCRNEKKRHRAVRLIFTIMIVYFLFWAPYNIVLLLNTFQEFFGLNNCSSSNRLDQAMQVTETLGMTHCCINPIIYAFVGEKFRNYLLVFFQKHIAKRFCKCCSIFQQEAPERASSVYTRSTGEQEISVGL
Sequence of C-C chemokine receptor type 2 (P41597 whole entry): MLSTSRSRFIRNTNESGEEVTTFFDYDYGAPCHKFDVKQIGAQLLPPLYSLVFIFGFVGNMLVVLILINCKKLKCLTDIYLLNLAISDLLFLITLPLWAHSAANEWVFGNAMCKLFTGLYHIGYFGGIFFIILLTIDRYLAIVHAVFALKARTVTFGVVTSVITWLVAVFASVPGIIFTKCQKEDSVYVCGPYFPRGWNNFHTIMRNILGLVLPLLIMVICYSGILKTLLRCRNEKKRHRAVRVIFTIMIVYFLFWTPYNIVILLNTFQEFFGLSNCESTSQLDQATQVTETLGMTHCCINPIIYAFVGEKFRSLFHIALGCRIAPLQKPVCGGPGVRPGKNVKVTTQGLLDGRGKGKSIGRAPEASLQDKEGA
Sequence of Beta-1 adrenergic receptor (P08588 whole entry): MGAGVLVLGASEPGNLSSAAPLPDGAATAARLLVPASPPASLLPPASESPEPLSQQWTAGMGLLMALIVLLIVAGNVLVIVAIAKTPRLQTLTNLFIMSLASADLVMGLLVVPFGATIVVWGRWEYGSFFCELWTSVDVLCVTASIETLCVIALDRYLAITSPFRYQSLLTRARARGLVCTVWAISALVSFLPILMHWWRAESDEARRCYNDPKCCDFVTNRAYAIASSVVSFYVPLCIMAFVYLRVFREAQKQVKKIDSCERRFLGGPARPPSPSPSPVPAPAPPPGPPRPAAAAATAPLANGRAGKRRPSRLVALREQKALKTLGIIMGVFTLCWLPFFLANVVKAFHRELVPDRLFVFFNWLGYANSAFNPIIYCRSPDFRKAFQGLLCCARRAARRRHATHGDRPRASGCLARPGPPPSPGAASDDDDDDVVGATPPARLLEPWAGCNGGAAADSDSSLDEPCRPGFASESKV

As a reminder, the IC50 is the concentration needed to halve the response being measured. A word on the Ki: it is the equilibrium dissociation constant of an inhibitor or competing ligand from its target. In the case of `Cc1cnc(NC(=O)C2=C(O)c3ccccc3S(=O)(=O)N2C)s1` [MELOXICAM], the IC50 entry in assay [1] (cho-k1), in assay [2], in assay [3], in assay [4] and in assay [5] was “Not Active” throughout. The Ki entry in assay [4] and in assay [5] was “Not Active” each time.

For the compound `Nc1nc(N)c2nc(-c3ccccc3)c(N)nc2n1`, the IC50 result in assay [1] (cho-k1), in assay [2], in assay [3], in assay [4] and in assay [5] was “Not Active” in each case. The Ki entry in assay [4] and in assay [5] was “Not Active” in each case.

Turning to `CC(C)(C)NC[C@H](O)COc1cccc2c1CCCC2=O` [LEVOBUNOLOL], the IC50 in assay [1] (read-out: IC50) is 6.9 nM; in assay [2], “Not Active”; in assay [3] it was “Not Active”; in assay [4], “Not Active”; in assay [5], “Not Active”. Moreover, the Ki is 3.99 nM in assay [1] (read-out: Ki), “Not Active” in assay [4] and “Not Active” in assay [5].

Turning to `Cc1[nH]c(=O)c(C#N)cc1-c1ccncc1` [MILRINONE], the IC50 entry in assay [1] (cho-k1), in assay [2], in assay [3], in assay [4] and in assay [5] was “Not Active” in each case. For the same compound, the Ki result in assay [4] and in assay [5] was “Not Active” each time.

Turning to `Cc1cn([C@H]2C=C[C@@H](CO)O2)c(=O)[nH]c1=O` [STAVUDINE], the IC50 entry in assay [1] (cho-k1), in assay [2], in assay [3], in assay [4] and in assay [5] was “Not Active” throughout. The inhibition constant (Ki) result in assay [4] and in assay [5] was “Not Active” in each case.

With `CCOc1cc(N)c(Cl)cc1C(=O)NCC1CN(Cc2ccc(F)cc2)CCO1` (centres undefined) [MOSAPRIDE], the IC50 result in assay [1] (cho-k1), in assay [2], in assay [3], in assay [4] and in assay [5] was “Not Active” each time. The Ki entry in assay [4] and in assay [5] was “Not Active” in each case.

Regarding `C#C[C@]1(O)CC[C@H]2[C@@H]3[C@H](C)CC4=C(CCC(=O)C4)[C@H]3CC[C@@]21C` [TIBOLONE], the IC50 entry in assay [1] (cho-k1), in assay [2], in assay [3], in assay [4] and in assay [5] was “Not Active” throughout. For the same compound, the Ki entry in assay [4] and in assay [5] was “Not Active” in each case.

Turning to `CC[C@H](C)[C@@H](CO[C@@H](Cc1ccccc1)C(=O)N[C@@H](CCS(C)(=O)=O)C(=O)OC(C)C)NC[C@@H](N)CS`, the IC50 entry in assay [1] (cho-k1), in assay [2], in assay [3], in assay [4] and in assay [5] was “Not Active” throughout. In addition, the Ki entry in assay [4] and in assay [5] was “Not Active” in each case.

For the compound `OC[C@@H](O)[C@@H](O)[C@H](O)[C@H](O)CO` [MANNITOL], the IC50 result in assay [1] (cho-k1), in assay [2], in assay [3], in assay [4] and in assay [5] was “Not Active” each time. Further, the Ki entry in assay [4] and in assay [5] was “Not Active” throughout.

Turning to `O=[As][O-].[Na+]` [SODIUM ARSENITE], the IC50 result in assay [1] (cho-k1), in assay [2], in assay [3], in assay [4] and in assay [5] was “Not Active” in each case. Further, the Ki entry in assay [4] and in assay [5] was “Not Active” each time.

Consider `Cc1cc2c(s1)Nc1ccccc1N=C2N1CCN(C)CC1` [OLANZAPINE], for which the half-maximal inhibitory concentration (IC50) entry in assay [1] (cho-k1), in assay [2] and in assay [3] was “Not Active” in each case.

`CNCCCC12CCC(c3ccccc31)c1ccccc12` [MAPROTILINE]: the IC50 result in assay [1] (cho-k1), in assay [2] and in assay [3] was “Not Active” each time.

With `CN(C)CCC=C1c2ccccc2COc2ccccc21` [DOXEPIN], the IC50 result in assay [2] and in assay [3] was “Not Active” each time.
